Reference: patent publication US10918657B2 (priority 2013, dated 2021)

Experiments:
[1] = tested on: giant reticulospinal (RS) neurons; set-up: species or system Petromyzon marinus; settings: in vivo
[2] = tested on: giant reticulospinal (RS) neurons; set-up: species or system Petromyzon marinus; settings: in vivo; remark: listed apart in the source
lamprey γ-synuclein = assay type: biochemical, Petromyzon marinus; settings: 100 pM synuclein, varying CLR01 concentrations
Method: After purification of GST-tagged lamprey γ-synuclein, GST was cleaved off using thrombin (10 U/mg protein; GE Healthcare). Untagged γ-synuclein was then separated from GST and thrombin using Glutathione Sepharose 4B beads and p-aminobenzamidine agarose ([…]/50 U thrombin; Sigma A7155), respectively, and dialyzed into 0.1M PBS, pH 7.4. Aggregation of the purified lamprey γ-synuclein was analyzed using the thioflavin T (ThT) fluorescence assay and electron microscopy as described previously (Roychaudhuri et al. (2014) J. Mol. Biol. 426: 2422-2441), except that 100 pM synuclein and varying CLR01 concentrations were used.

α-synuclein = α-synuclein (Homo sapiens, UniProt P37840); settings: cited from earlier work
[3] = tested on: α-synuclein neurotoxicity; settings: in vivo; cited from earlier work
[4] = tested on: Aβ and hyperphosphorylated tau; settings: mouse, in vivo; cited from earlier work

Row | Compound | synuclein immunofluorescence intensity in good survivors [1] [AU] | synuclein immunofluorescence intensity in poor survivors [1] [AU] | survival of the giant RS neurons at the population level (Nissl (+)) [2] | inhibition of lamprey γ-synuclein aggregation (ThT fluorescence) (lamprey γ-synuclein) | synuclein immunofluorescence intensity in "good survivors" [1] [AU] | synuclein immunofluorescence intensity in "poor survivors" [1] [AU] | increase in neuronal survival across the entire RS neuron population [2] [%] | increase of percentage of Nissl (+) "poor survivors" [2] | effect on α-synuclein clearance in vitro (α-synuclein) | effect on α-synuclein self-assembly and toxicity in vitro (α-synuclein) | effect on neurodegeneration and survival in zebrafish model [3] | effect on accumulation of Aβ and hyperphosphorylated tau [4]
1 | 5′-CGC cTg CAT TgC TCT TTg TTT cTC T-3′ [MM MO] | 26.0±2.4 | 40.7±3.7 | 60.0±8.0 | – | – | – | – | – | – | – | – | –
2 | 5′-[…]-3′ [Con MO] | 25.7±1.9 | 42.6±3.5 | 56.7±5.7 | – | – | – | – | – | – | – | – | –
3 | O=P(O)(O)Oc1c2c(c(OP(=O)(O)O)c3c1[C@H]1C[C@@H]3c3cc4c(cc31)[C@H]1C[C@@H]4c3ccccc31)[C@H]1C[C@@H]2c2cc3c(cc21)[C@H]1C[C@@H]3c2ccccc21 [CLR01] | – | – | – | inhibited by CLR01 in a dose-dependent manner | 5.6±1.3 | 25.7±3.1 | 22 | more than 4 fold | facilitates α-synuclein clearance in vitro | inhibits a-synuclein self-assembly and toxicity in vitro | reduces neurodegeneration and improves survival | reduce accumulation of Aβ and hyperphosphorylated tau
